Experimental data: paper PMC7562955 (Nature Communications, 2020)

Target: T1, human TLR8 (Homo sapiens, UniProt Q9NR97)
T1 construct: host or cells: HEK293 (TLR8/NF-κB/SEAPorter)
T1 sequence (Q9NR97 27-1041): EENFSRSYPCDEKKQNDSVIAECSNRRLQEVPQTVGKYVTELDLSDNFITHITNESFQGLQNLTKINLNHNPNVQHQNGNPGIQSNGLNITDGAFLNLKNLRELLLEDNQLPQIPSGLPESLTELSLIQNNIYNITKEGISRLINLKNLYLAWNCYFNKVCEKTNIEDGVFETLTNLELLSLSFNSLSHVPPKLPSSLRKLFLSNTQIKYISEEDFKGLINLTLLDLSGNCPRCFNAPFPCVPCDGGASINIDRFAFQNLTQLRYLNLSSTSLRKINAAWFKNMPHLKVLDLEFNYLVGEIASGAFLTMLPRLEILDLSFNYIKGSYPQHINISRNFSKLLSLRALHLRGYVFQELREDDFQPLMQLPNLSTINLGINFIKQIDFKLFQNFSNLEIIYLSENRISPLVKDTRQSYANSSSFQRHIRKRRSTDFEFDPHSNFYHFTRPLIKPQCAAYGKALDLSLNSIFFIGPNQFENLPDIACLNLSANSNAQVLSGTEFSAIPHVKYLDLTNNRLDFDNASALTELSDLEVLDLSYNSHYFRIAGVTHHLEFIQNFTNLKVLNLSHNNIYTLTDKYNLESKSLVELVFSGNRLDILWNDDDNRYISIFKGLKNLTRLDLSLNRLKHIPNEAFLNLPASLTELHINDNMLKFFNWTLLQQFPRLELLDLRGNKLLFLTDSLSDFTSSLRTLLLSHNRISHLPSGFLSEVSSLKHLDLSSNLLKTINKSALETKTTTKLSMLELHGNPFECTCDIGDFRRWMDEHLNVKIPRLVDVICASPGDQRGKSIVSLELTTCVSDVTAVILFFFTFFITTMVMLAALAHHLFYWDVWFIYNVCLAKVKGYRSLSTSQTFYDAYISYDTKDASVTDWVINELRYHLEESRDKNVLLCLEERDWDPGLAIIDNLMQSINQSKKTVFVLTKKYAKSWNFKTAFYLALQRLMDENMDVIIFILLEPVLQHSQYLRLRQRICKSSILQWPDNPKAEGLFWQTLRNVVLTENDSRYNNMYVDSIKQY
Test: Human TLR8 reporter gene inhibitory activity assay (NF-κB/SEAP HEK293)
Format: cell-based
Set-up: key to human TLR8 activity, reporter signal: SEAP activity as absorbance at 405 nm
Settings: for human TLR8 activity, reporter signal: R848 30 μM
Experimental: Compounds were dissolved in dimethyl sulfoxide. Before stimulation with compound, Human TLR7 reporter cell line (TLR7/NF-κB/SEAPorter^TM HEK293 cell, Novus Biological, USA), human TLR8 reporter cell line (TLR8/NF-κB/SEAPorter^TM HEK293 cell, Novus Biological), and human TLR9 reporter cell line (TLR9/NF-κB/SEAPorter^TM HEK293 cell, Novus Biological) were seeded in 96-well microtiter plate (AGC techno glass, Japan) at 5 × 10^4 cells/well in DMEM (GIBCO, United Kingdam) with 10 % fetal bovine serum (GIBCO), and 10 ug/ml Blastcidin S HCl (GIBCO) and incubated at 37 °C in 5% CO2. […] The plates were then incubated an additional 20 ± 1 h at 37 °C in 5% CO2 and then the secreted embryonic alkaline phosphatase (SEAP) activity was measured as activation of human TLR7, 8, and 9. The SEAP activity was evaluated as follows: pNPP (Invitrogen, USA) was added to the incubated sample (50 μl/well); after 15 min, 4 M sodium hydroxide solution (nacalai tesque, Japan) was added thereto (50 μl/well) to quench the reaction; and the absorbance of each sample was measured at 405 nm with microplate reader SpectraMax M4 (Molecular Devices, USA).

## CCOc1nc(N)c2nc(-c3cncc(F)c3)n(Cc3ccc(CN4C[C@@H]5C[C@H]4CN5C)cc3)c2n1 [Cpd-6]
Compound 0.0001 nM (as headed)
  human TLR8 activity, reporter signal: 2.3942
Compound 0.001 nM (as headed)
  human TLR8 activity, reporter signal: 2.34
Compound 0.003 nM (as headed)
  human TLR8 activity, reporter signal: 2.276
Compound 0.01 nM (as headed)
  human TLR8 activity, reporter signal: 2.199
Compound 0.03 nM (as headed)
  human TLR8 activity, reporter signal: 2.181
Compound 0.1 nM (as headed)
  human TLR8 activity, reporter signal: 2.241
Compound 0.3 nM (as headed)
  human TLR8 activity, reporter signal: 2.31
Compound 1 nM (as headed)
  human TLR8 activity, reporter signal: 2.218
Compound 3 nM (as headed)
  human TLR8 activity, reporter signal: 2.159
Compound 10 nM (as headed)
  human TLR8 activity, reporter signal: 2.04
Compound 30 nM (as headed)
  human TLR8 activity, reporter signal: 1.859
Compound 100 nM (as headed)
  human TLR8 activity, reporter signal: 1.331

## CCCCOc1nc(N)c2nc(-c3cccnc3)n(Cc3ccccc3)c2n1 [Cpd-5]
  inhibition of TLR8: without causing any inhibition
Compound 0.0001 nM (as headed)
  human TLR8 activity, reporter signal: 2.52
Compound 0.001 nM (as headed)
  human TLR8 activity, reporter signal: 2.344
Compound 0.003 nM (as headed)
  human TLR8 activity, reporter signal: 2.316
Compound 0.01 nM (as headed)
  human TLR8 activity, reporter signal: 2.3178
Compound 0.03 nM (as headed)
  human TLR8 activity, reporter signal: 2.3193
Compound 0.1 nM (as headed)
  human TLR8 activity, reporter signal: 2.309
Compound 0.3 nM (as headed)
  human TLR8 activity, reporter signal: 2.404
Compound 1 nM (as headed)
  human TLR8 activity, reporter signal: 2.342
Compound 3 nM (as headed)
  human TLR8 activity, reporter signal: 2.269
Compound 10 nM (as headed)
  human TLR8 activity, reporter signal: 2.216
Compound 30 nM (as headed)
  human TLR8 activity, reporter signal: 2.0417
Compound 100 nM (as headed)
  human TLR8 activity, reporter signal: 2.1673

## CCOc1nc(C)c2nc(-c3cncc(F)c3)n(Cc3ccc(CN4C[C@@H]5C[C@H]4CN5C)cc3)c2n1 [Cpd-7]
Compound 0.0001 nM (as headed)
  human TLR8 activity, reporter signal: 2.3942
Compound 0.001 nM (as headed)
  human TLR8 activity, reporter signal: 2.221
Compound 0.003 nM (as headed)
  human TLR8 activity, reporter signal: 2.201
Compound 0.01 nM (as headed)
  human TLR8 activity, reporter signal: 2.199
Compound 0.03 nM (as headed)
  human TLR8 activity, reporter signal: 2.25
Compound 0.1 nM (as headed)
  human TLR8 activity, reporter signal: 2.186
Compound 0.3 nM (as headed)
  human TLR8 activity, reporter signal: 2.297
Compound 1 nM (as headed)
  human TLR8 activity, reporter signal: 2.272
Compound 3 nM (as headed)
  human TLR8 activity, reporter signal: 2.178
Compound 10 nM (as headed)
  human TLR8 activity, reporter signal: 2.071
Compound 30 nM (as headed)
  human TLR8 activity, reporter signal: 1.909
Compound 100 nM (as headed)
  human TLR8 activity, reporter signal: 1.678
